Data reported in ChEMBL document CHEMBL3390844, “Development of substituted 7-phenyl-4-aminobenzothieno[3,2-d] pyrimidines as potent LIMK1 inhibitors” (Medchemcomm, 2011).
Converted amounts (≈) assume the structure as drawn.

Key:
[1] = molecular target: Tyrosine-protein kinase Lck (Homo sapiens) (UniProt P06239); experiment: Inhibition of Lck (unknown origin) at 1 uM
[2] = molecular target: Rho-associated protein kinase 2 (Homo sapiens) (UniProt O75116); experiment: Inhibition of ROCK2 (unknown origin) at 1 uM
Sequence of Rho-associated protein kinase 2 (Homo sapiens) (O75116 whole entry, looked up): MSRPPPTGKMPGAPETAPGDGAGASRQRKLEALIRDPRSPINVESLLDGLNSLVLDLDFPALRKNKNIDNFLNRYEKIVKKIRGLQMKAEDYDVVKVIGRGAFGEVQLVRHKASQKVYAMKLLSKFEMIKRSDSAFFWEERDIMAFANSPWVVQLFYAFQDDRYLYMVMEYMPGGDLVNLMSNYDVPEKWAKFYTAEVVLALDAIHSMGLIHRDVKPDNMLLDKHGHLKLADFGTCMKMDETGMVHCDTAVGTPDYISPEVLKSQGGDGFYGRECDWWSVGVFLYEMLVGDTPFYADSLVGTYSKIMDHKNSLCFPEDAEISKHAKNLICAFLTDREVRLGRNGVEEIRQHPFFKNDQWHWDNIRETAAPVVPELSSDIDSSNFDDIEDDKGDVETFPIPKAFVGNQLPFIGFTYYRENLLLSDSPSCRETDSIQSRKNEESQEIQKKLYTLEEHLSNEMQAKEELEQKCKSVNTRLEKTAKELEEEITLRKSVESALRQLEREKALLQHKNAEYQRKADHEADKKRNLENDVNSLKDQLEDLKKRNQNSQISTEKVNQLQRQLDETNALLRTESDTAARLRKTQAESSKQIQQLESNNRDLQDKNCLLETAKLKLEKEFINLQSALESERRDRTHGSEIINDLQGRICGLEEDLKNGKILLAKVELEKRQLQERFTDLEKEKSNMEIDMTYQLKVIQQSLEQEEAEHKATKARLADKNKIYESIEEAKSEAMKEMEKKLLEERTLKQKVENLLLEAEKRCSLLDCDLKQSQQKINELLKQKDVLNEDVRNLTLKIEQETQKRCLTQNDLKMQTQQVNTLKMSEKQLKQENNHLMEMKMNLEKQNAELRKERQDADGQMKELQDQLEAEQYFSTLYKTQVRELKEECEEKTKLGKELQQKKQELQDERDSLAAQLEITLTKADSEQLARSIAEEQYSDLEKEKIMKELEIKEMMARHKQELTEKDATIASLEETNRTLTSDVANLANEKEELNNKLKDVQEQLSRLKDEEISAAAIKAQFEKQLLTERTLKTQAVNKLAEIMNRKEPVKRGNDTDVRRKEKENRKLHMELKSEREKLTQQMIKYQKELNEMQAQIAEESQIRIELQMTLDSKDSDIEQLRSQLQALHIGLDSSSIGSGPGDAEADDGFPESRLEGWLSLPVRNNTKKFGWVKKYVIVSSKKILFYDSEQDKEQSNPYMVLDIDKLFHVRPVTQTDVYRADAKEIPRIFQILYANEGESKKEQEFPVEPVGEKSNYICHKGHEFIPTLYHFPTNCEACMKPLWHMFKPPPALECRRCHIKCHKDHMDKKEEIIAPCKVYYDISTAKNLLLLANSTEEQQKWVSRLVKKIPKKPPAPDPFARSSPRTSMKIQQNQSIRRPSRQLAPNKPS

[3] = molecular target: Tyrosine-protein kinase JAK2 (Homo sapiens) (UniProt O60674); experiment: Inhibition of JAK2 (unknown origin) at 1 uM
LIM domain kinase 1 [4] = molecular target: T1, LIM domain kinase 1 (Homo sapiens, UniProt P53667); experiment: Inhibition of LIMK1-catalyzed cofilin phosphorylation in human ZR-75-1 cells; format: cell-based
T1 sequence (P53667 whole entry, the tested form may be a part): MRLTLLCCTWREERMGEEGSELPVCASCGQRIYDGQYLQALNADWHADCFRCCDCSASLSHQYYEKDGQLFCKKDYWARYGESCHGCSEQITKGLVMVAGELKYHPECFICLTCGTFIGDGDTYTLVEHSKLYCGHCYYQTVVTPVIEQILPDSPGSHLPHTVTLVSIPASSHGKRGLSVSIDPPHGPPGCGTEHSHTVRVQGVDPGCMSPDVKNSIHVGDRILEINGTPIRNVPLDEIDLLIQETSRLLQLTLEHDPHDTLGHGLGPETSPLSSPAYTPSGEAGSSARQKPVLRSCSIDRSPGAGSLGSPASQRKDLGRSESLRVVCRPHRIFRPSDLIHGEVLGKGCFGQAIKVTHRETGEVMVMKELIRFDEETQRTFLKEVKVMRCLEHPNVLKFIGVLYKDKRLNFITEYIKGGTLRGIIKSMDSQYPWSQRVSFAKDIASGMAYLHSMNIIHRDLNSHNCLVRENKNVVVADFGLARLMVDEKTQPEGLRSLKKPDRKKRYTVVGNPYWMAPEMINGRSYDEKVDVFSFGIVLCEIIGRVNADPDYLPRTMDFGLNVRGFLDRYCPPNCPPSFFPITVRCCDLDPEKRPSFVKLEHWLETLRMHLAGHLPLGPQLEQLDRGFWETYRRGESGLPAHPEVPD

[5] = molecular target: T2, Tyrosine-protein kinase JAK3 (Homo sapiens) (UniProt P52333); experiment: Inhibition of JAK3 (unknown origin) at 1 uM
T2 sequence (whole entry): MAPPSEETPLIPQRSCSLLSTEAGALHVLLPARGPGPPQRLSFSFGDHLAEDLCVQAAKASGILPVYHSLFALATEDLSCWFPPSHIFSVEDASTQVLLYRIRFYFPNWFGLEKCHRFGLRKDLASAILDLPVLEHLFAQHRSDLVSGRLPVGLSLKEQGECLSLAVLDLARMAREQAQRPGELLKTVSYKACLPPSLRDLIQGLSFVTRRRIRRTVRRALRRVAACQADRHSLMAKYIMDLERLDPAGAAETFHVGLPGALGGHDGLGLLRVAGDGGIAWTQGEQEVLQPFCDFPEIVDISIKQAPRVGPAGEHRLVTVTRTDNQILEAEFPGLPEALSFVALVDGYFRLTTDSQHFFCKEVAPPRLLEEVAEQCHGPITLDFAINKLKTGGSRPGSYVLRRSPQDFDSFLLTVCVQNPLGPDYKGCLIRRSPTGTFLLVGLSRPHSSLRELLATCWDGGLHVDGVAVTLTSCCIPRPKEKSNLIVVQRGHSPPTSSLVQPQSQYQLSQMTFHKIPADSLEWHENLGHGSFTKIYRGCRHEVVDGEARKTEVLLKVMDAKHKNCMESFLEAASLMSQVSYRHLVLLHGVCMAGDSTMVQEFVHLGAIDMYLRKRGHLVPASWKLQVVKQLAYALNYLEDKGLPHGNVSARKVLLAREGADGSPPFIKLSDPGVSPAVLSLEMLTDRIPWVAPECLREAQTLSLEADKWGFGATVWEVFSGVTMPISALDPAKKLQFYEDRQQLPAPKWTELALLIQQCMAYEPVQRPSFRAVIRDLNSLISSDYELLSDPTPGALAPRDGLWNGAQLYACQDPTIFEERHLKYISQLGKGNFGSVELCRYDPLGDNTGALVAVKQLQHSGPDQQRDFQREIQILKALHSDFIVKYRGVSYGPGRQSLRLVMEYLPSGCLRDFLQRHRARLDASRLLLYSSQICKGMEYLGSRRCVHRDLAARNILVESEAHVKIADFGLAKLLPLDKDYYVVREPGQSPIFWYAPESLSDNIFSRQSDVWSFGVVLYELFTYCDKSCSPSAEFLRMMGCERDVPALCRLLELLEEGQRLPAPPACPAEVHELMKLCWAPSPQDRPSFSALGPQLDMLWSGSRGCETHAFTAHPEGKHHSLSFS

CYP1A2 = molecular target: T3, CYP1A2 (Homo sapiens, UniProt P05177); experiment: Inhibition of CYP1A2 in human liver microsomes assessed as reduction in apparent rate of formation of metabolites using phenacetin as substrate at 20 uM by LC-MS analysis; format: ADME; conditions: probe phenacetin
T3 sequence (P05177 whole entry): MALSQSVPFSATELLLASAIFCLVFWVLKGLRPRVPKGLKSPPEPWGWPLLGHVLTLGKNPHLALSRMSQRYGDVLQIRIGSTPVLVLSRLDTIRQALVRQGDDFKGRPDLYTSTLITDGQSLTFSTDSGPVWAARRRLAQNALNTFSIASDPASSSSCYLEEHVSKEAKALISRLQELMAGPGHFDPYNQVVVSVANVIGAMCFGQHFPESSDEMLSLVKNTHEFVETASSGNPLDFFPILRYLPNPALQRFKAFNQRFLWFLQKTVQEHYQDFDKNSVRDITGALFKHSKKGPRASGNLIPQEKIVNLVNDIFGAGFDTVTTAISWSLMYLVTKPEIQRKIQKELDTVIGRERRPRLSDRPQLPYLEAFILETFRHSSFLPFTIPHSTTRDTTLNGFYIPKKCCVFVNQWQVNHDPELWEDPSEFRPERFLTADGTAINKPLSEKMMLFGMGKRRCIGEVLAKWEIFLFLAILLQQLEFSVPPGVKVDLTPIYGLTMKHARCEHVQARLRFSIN

[6] = In vitro intrinsic clearance in mouse liver microsomes at 1 uM by LC-MS analysis; format: ADME; conditions: read-out: CLH
hERG (KCNH2) = hERG (KCNH2) (Homo sapiens, UniProt Q12809); experiment: Inhibition of human ERG at 10 uM by fluorescence polarization assay
CYP3A4 = CYP3A4 (Homo sapiens, UniProt P08684); experiment: Inhibition of CYP3A4 in human liver microsomes assessed as reduction in apparent rate of formation of metabolites using midazolam or testosterone as substrate at 20 uM by LC-MS analysis; format: ADME; conditions: probe midazolam or testosterone
Sequence of CYP3A4 (P08684 whole entry): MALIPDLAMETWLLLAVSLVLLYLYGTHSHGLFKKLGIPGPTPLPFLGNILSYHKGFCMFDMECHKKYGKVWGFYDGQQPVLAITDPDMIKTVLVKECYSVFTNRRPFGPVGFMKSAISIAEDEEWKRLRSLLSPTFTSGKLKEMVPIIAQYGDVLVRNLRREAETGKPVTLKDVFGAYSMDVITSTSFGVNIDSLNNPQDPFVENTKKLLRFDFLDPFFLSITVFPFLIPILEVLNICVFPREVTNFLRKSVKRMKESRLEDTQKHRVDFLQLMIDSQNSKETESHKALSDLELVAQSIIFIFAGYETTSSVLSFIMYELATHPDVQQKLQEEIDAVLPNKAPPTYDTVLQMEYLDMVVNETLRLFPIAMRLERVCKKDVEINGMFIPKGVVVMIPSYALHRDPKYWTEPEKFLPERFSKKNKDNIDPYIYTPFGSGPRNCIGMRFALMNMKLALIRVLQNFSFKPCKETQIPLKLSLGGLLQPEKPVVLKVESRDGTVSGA

[7] = Plasma protein binding in human by LC-MS analysis; format: ADME, cell-free; conditions: read-out: PPB (converted)
LIM domain kinase 1 [8] = molecular target: T1, LIM domain kinase 1; experiment: Inhibition of LIMK1 (unknown origin) assessed as ADP formation using cofilin-2 protein as substrate measured after 60 mins incubation with enzyme by Transcreener assay
[9] = Solubility of the compound in 0.01 M HCl at pH 2 by nephelometry; format: physicochemical
[10] = molecular target: Proto-oncogene tyrosine-protein kinase Src (Homo sapiens) (UniProt P12931); experiment: Inhibition of Src (unknown origin) at 1 uM
Sequence of Proto-oncogene tyrosine-protein kinase Src (Homo sapiens) (P12931 2-536 limits assumed): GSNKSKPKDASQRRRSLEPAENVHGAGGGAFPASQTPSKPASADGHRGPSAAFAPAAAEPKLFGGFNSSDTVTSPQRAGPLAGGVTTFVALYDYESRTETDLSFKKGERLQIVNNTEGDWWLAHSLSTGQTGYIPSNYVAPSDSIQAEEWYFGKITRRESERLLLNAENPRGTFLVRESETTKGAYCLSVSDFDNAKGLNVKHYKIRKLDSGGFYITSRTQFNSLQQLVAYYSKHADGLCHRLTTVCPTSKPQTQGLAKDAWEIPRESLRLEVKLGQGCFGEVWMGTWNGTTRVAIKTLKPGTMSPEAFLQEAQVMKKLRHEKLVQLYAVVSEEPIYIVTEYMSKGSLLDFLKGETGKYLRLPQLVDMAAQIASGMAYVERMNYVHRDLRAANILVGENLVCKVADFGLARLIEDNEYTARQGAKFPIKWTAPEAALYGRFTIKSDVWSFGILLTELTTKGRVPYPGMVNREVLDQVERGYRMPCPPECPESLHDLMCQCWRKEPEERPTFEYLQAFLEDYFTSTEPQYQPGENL

[11] = molecular target: Tyrosine-protein kinase JAK1 (Homo sapiens) (UniProt P23458); experiment: Inhibition of JAK1 (unknown origin) at 1 uM
Sequence of Tyrosine-protein kinase JAK1 (Homo sapiens) (P23458 whole entry): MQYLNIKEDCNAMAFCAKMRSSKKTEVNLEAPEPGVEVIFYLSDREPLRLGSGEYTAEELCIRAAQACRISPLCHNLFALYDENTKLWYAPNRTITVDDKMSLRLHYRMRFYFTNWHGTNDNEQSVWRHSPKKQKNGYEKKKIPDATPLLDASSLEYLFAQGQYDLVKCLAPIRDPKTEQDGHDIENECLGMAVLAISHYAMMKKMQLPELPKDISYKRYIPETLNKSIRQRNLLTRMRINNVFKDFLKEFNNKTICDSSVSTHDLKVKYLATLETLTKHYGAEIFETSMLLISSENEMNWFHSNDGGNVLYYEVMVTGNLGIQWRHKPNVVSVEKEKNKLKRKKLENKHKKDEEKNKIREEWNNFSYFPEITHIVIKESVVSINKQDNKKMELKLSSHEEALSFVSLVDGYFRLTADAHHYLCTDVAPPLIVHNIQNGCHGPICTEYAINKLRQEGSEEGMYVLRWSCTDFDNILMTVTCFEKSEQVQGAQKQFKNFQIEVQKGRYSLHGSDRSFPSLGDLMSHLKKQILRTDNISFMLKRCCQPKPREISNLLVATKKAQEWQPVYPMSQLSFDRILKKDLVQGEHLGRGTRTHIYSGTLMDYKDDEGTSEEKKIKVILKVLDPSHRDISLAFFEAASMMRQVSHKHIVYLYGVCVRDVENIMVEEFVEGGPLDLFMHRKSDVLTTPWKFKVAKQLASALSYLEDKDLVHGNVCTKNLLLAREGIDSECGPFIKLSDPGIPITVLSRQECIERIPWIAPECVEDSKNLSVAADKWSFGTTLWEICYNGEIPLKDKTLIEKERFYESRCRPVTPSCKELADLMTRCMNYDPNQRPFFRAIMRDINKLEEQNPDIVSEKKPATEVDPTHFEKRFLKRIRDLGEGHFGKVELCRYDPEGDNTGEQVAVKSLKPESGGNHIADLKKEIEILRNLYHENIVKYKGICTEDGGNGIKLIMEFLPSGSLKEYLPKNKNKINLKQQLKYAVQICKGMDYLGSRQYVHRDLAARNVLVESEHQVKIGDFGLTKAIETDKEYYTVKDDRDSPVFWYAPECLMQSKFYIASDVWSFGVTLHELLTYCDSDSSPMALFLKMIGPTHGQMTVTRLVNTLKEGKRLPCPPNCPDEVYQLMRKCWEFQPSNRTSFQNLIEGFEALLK

[12] = molecular target: Serine/threonine-protein kinase PAK 4 (Homo sapiens) (UniProt O96013); experiment: Inhibition of PAK4 (unknown origin) at 1 uM
[13] = In vitro intrinsic clearance in human liver microsomes at 1 uM by LC-MS analysis; format: ADME; conditions: read-out: CLH
[14] = molecular target: Serine/threonine-protein kinase PAK 1 (Homo sapiens) (UniProt Q13153); experiment: Inhibition of PAK1 (unknown origin) at 1 uM
[15] = Partition coefficient, log D of the compound at pH 7.4 by HPLC analysis; format: physicochemical; conditions: octanol/water
[16] = Solubility of the compound in phosphate buffer at pH 6.5 by nephelometry; format: physicochemical
LIM domain kinase 1 [17] = molecular target: T1, LIM domain kinase 1; experiment: Inhibition of LIMK1 (unknown origin) assessed as remaining ATP level using cofilin-2 protein as substrate measured after 60 mins incubation with enzyme by KinaseGlo assay
LIM domain kinase 2 = LIM domain kinase 2 (Homo sapiens, UniProt P53671); experiment: Inhibition of LIMK2 (unknown origin)
Sequence of LIM domain kinase 2 (P53671 whole entry, the tested form may be a part): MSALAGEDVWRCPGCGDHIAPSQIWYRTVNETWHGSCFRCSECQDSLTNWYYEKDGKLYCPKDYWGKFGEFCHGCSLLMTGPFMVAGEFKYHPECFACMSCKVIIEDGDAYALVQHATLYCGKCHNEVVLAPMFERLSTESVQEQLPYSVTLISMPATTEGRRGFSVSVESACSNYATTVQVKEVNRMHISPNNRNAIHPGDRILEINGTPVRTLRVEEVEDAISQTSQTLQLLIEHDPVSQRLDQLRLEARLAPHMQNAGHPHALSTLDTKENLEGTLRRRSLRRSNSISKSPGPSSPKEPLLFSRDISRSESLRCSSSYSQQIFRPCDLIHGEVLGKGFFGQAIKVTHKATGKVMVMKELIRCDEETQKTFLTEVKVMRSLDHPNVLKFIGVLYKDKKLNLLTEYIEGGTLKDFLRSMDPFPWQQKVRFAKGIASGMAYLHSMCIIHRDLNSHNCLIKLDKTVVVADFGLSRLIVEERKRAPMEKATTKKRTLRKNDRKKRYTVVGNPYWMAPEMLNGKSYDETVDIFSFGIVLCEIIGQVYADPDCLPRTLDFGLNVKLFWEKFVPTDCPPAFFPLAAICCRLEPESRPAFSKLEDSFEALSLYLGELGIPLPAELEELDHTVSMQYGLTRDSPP

SMILES: Nc1ncnc2c1sc1cc(-c3cccc(C(=O)NCC(=O)N4CCOCC4)c3)ccc12
- inhibition [1]: 97%
- inhibition [2]: 18%
- inhibition [3]: 97%
- IC50 (LIM domain kinase 1 [4]): 1400 nM
- inhibition [5]: 65%
- inhibition at 20 µM (CYP1A2): 17%
- microsomal CLint at 1 µM [6]: < 6 µL/min/mg
- inhibition at 10 µM (hERG (KCNH2)): 0%
- inhibition at 20 µM (CYP3A4): 70%
- fraction unbound [7]: 0.053
- IC50 (LIM domain kinase 1 [8]): 81 nM
- solubility kinetic [9]: 50 µg/mL (≈ 112 µM)
- inhibition [10]: 45%
- inhibition [11]: 31%
- inhibition [12]: 0%
- microsomal CLint at 1 µM [13]: 68 µL/min/mg
- inhibition [14]: 23%
- logD [15]: 2.1
- solubility kinetic [16]: 6.3 µg/mL (≈ 14.1 µM)

SMILES: Nc1ncnc2c1sc1cc(-c3ccccc3O)ccc12
- IC50 (LIM domain kinase 1 [17]): 260 nM

SMILES: CC(C)NC(=O)Nc1cccc(-c2ccc3c(c2)sc2c(N)ncnc23)c1
- IC50 (LIM domain kinase 1 [8]): 78 nM

SMILES: Nc1ncnc2c1sc1cc(-c3cccnc3)ccc12
- IC50 (LIM domain kinase 1 [17]): 795 nM

SMILES: Nc1ncnc2c1sc1cc(-c3cccc(Cl)c3)ccc12
- IC50 (LIM domain kinase 1 [17]): 199 nM

SMILES: C[C@@H](NC(=O)c1cccc(-c2ccc3c(c2)sc2c(N)ncnc23)c1)C(N)=O
- IC50 (LIM domain kinase 1 [8]): 294 nM

SMILES: NC(=O)c1ccc(-c2ccc3c(c2)sc2c(N)ncnc23)cc1
- IC50 (LIM domain kinase 1 [17]): 156 nM

SMILES: CC(=O)Nc1cccc(-c2ccc3c(c2)sc2c(N)ncnc23)c1
- IC50 (LIM domain kinase 1 [17]): 395 nM

SMILES: CC(=O)c1ccc(-c2ccc3c(c2)sc2c(N)ncnc23)cc1
- IC50 (LIM domain kinase 1 [17]): 172 nM

SMILES: CS(=O)(=O)c1cccc(-c2ccc3c(c2)sc2c(N)ncnc23)c1
- IC50 (LIM domain kinase 1 [17]): 361 nM

SMILES: CS(=O)(=O)Nc1ccccc1-c1ccc2c(c1)sc1c(N)ncnc12
- IC50 (LIM domain kinase 1 [17]): 998 nM

SMILES: Cn1c2cc(-c3ccccc3)ccc2c2ncnc(N)c21
- microsomal CLint at 1 µM [6]: 572 µL/min/mg
- solubility kinetic [9]: 12.5 µg/mL (≈ 45.6 µM)
- microsomal CLint at 1 µM [13]: 70 µL/min/mg
- logD [15]: 3.4
- solubility kinetic [16]: 3.1 µg/mL (≈ 11.3 µM)

SMILES: Cn1c2cc(-c3ccc(NC=O)cc3)ccc2c2ncnc(N)c21
- IC50 (LIM domain kinase 1 [8]): 498 nM

SMILES: CC(=O)Nc1ccc(-c2ccc3c(c2)sc2c(N)ncnc23)cc1
- IC50 (LIM domain kinase 1 [17]): 181 nM

SMILES: NC(=O)Nc1cccc(-c2ccc3c(c2)sc2c(N)ncnc23)c1
- IC50 (LIM domain kinase 1 [8]): 145 nM

SMILES: Nc1ncnc2c1sc1cc(-c3cccc(-c4nn[nH]n4)c3)ccc12
- IC50 (LIM domain kinase 1 [17]): 50 nM
- IC50 (LIM domain kinase 1 [4]): > 30000 nM
- IC50 (LIM domain kinase 2): 90 nM
- microsomal CLint at 1 µM [6]: < 6 µL/min/mg
- fraction unbound [7]: 0.012
- solubility kinetic [9]: 6.3 µg/mL (≈ 18.2 µM)
- microsomal CLint at 1 µM [13]: < 5 µL/min/mg
- logD [15]: 2
- solubility kinetic [16]: 6.3 µg/mL (≈ 18.2 µM)

SMILES: Nc1ncnc2c1sc1cc(-c3ccc(-c4nn[nH]n4)cc3)ccc12
- IC50 (LIM domain kinase 1 [17]): 127 nM

SMILES: CCNC(=O)Nc1cccc(-c2ccc3c(c2)sc2c(N)ncnc23)c1
- IC50 (LIM domain kinase 1 [4]): > 30000 nM
- IC50 (LIM domain kinase 2): 164 nM
- microsomal CLint at 1 µM [6]: 68 µL/min/mg
- IC50 (LIM domain kinase 1 [8]): 87 nM
- solubility kinetic [9]: 12.5 µg/mL (≈ 34.4 µM)
- microsomal CLint at 1 µM [13]: 24 µL/min/mg
- logD [15]: 2.4
- solubility kinetic [16]: 1.6 µg/mL (≈ 4.4 µM)

SMILES: COc1ccccc1-c1ccc2c(c1)sc1c(N)ncnc12
- IC50 (LIM domain kinase 1 [17]): 220 nM

SMILES: N#Cc1ccc(-c2ccc3c(c2)sc2c(N)ncnc23)cc1
- IC50 (LIM domain kinase 1 [17]): 828 nM

SMILES: Nc1ncnc2c1sc1cc(-c3cccc(CO)c3)ccc12
- IC50 (LIM domain kinase 1 [17]): 129 nM

SMILES: Nc1ncnc2c1sc1cc(-c3cccc(NC=O)c3)ccc12
- IC50 (LIM domain kinase 1 [17]): 55 nM
- IC50 (LIM domain kinase 1 [8]): 55 nM

SMILES: CN1CCN(CCNC(=O)Nc2cccc(-c3ccc4c(c3)sc3c(N)ncnc34)c2)CC1
- IC50 (LIM domain kinase 1 [8]): 223 nM
